# Source: patent publication US7317125B2 (Hoffman-La Roche Inc., priority 2005, dated 2008)
# pEC50: −log10 of the molar value.
# Target: T1, DGAT1 (Homo sapiens, UniProt O75907)
# T1 construct: expressed in transfected cells; host or cells: CHOK1
# T1 sequence (O75907 1-488): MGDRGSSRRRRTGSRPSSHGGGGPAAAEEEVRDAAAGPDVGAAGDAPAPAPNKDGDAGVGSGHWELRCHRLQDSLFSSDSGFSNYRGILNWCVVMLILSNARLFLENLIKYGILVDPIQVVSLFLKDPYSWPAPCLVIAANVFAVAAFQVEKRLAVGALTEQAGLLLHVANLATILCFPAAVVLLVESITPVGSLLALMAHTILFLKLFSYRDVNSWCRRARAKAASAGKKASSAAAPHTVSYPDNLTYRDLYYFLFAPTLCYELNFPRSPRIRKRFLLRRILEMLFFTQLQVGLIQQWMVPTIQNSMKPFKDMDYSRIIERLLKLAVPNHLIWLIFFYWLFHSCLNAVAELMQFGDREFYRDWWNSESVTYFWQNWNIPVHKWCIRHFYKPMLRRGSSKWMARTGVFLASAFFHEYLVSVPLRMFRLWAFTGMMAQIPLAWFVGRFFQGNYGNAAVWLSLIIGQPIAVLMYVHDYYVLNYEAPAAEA
# Experiment: DGAT CHOK1 Cell Assay
# Type: cell-based
# Settings: CHOK1 cells transfected with DGAT1, 14C palmitic acid, 1 hour at 37° C., triglyceride by TLC
# From the text: Materials for the assay were: petroleum ether (J. T. Baker #9268-22); diethyl ether (Aldrich #30995-8); acetic acid; 1,2-dioleoyl-3-palmitoyl-glycerol (Sigma D-1782); ^[…] Palmitic Acid (56.0 mCi/mmol PerkinElmer Life Sciences # NEC 075H); DMEM/F12 (Gibco #11330-032); fetal bovine serum; L-Glutamine; G418/ml media; DMEM High Glucose (Gibco #11995-065); BSA Fraction V Fatty Acid Free (Roche #100 377); 20×°cm silica gel 60 glass plates (EM Science Plates #5721/7).
# CHOK1/DGAT cell culture medium was prepared with DMEM/F12 (Gibco #11330-032), […], and 20 ul G418/ml media. 1,2-dioleoyl-3-palmitoyl-glycerol was prepared by dissolving 10 mg into 1 ml chloroform and stored at −20° C. in 100 μl aliquots. Test compounds were prepared as 10 mM stock solutions in DMSO and store at −20° C. before use. Test dilutions were prepared by five fold serial dilutions over final concentrations.
# CHOK1 cells transfected with DGAT1 were diluted in 6 well plates at 2.5×10^5 cells per well and cultured overnight. Cells were then washed twice with PBS. Test compound solutions (10 μl/2 ml media aliquots) in DMEM High Glucose with 0.01% BSA (fatty acid free) were added to cell culture plates at 800 μl per well. ^14C Palmitic acid (0.5 μCi, 5 μl) was added to each well. The plates were incubated for 1 hour at 37° C. After the incubation period, the plates were placed on ice, cells were scraped into media and transferred to microfuge tubes. 400 μl chloroform:methanol (2:1) was added to each tube. Each tube was briefly vortexed by hand, then mechanically vortexed for 10 minutes. Each tube was then centrifuged at 14,000 RPM for 10 minutes at 4° C. and the bottom layer removed and transferred to a new microfuge tube.
# Extracted samples were spotted onto TLC plates at 20 μl per lane. The TLC plates were eluted with a solvent mixture of petroleum ether, diethyl ether and acetic acid (80:20:1) and air dried. Trigylceride (TG) spots were visualized by placing in an iodine chamber for several minutes. 1 μl of ^14C palmitic acid (diluted 1:10 in 100% EtOH) was spotted on the TG standard lane (at TG level) as a reference. The TLC plates were wrapped in plastic wrap and placed in a phosphorimager cassette for scanning.
# The EC50 values for those compounds tested in this Example were generated using an Excel template, the results of which are shown in Table II: […]
row,SMILES,pEC50
1,"CC(C)N(NC(=O)c1ccccc1)C(=O)COc1ccc(F)cc1-c1ccc(F)cc1 [Example 1, benzoic acid N′-[2-(5,4′-difluoro-biphenyl-2-yloxy)-acetyl]-N′-isopropyl-hydrazide]",5.08
2,"CC(C)N(NC(=O)c1ccccc1)C(=O)COc1ccc(F)cc1-c1ccccc1Cl [Example 2, benzoic acid N′-[2-(2′-chloro-5-fluoro-biphenyl-2-yloxy)-acetyl]-N′-isopropyl-hydrazide]",5.51
3,"Cc1ccccc1-c1cc(F)ccc1OCC(=O)N(NC(=O)c1ccccc1)C(C)C [Example 3, benzoic acid N′-[2-(5-fluoro-2′-methyl-biphenyl-2-yloxy)-acetyl]-N′-isopropyl-hydrazide]",5.99
4,"COc1ccccc1-c1cc(F)ccc1OCC(=O)N(NC(=O)c1ccccc1)C(C)C [Example 4, benzoic acid N′-[2-(5-fluoro-2′-methoxy-biphenyl-2-yloxy)-acetyl]-N′-isopropyl-hydrazide]",5.74
5,"CC(C)N(NC(=O)c1ccccc1)C(=O)COc1ccc(F)cc1-c1ccccc1F [Example 5, benzoic acid N′-[2-(5,2′-difluoro-biphenyl-2-yloxy)-acetyl]-N′-isopropyl-hydrazide]",5.66
6,"CC(C)N(NC(=O)c1ccccc1)C(=O)COc1ccc(F)cc1-c1cccc(F)c1 [Example 9, benzoic acid N′-[2-(5,3′-difluoro-biphenyl-2-yloxy)-acetyl]-N′-isopropyl-hydrazide]",5.42
7,CC(C)N(NC(=O)c1ccccc1)C(=O)COc1ccc(F)cc1-c1cccc(Cl)c1 [Example 10],6.04
8,"CC(C)N(NC(=O)c1ccccc1)C(=O)COc1ccc(F)cc1-c1ccccc1 [Example 11, benzoic acid N′-[2-(5-fluoro-biphenyl-2-yloxy)-acetyl]-N′-isopropyl-hydrazide]",5.73
9,"CC(C)c1cccc(-c2cc(F)ccc2OCC(=O)N(NC(=O)c2ccccc2)C(C)C)c1 [Example 12, benzoic acid N′-[2-(5-fluoro-3′-isopropyl-biphenyl-2-yloxy)-acetyl]-N′-isopropyl-hydrazide]",6.00
10,"CSc1ccccc1-c1cc(F)ccc1OCC(=O)N(NC(=O)c1ccccc1)C(C)C [Example 13, benzoic acid N′-[2-(5-fluoro-2′-methylsylfanyl-biphenyl-2-yloxy)-acetyl]-N′-isopropyl-hydrazide]",6.51
11,"CC(C)N(NC(=O)c1ccccc1)C(=O)COc1ccc(F)cc1-c1ccccc1[N+](=O)[O-] [Example 14, benzoic acid N′-[2-(5-fluoro-2′-nitro-biphenyl-2-yloxy)-acetyl]-N′-isopropyl-hydrazide]",6.64
12,"CC(C)Oc1ccccc1-c1cc(F)ccc1OCC(=O)N(NC(=O)c1ccccc1)C(C)C [Example 15, benzoic acid N′-[2-(5-fluoro-2′-isopropoxy-biphenyl-2-yloxy)-acetyl]-N′-isopropyl-hydrazide]",5.31
13,"CCc1ccccc1-c1cc(F)ccc1OCC(=O)N(NC(=O)c1ccccc1)C(C)C [Example 16, benzoic acid N′-[2-(2′-ethyl-5-fluoro-biphenyl-2-yloxy)-acetyl]-N′-isopropyl-hydrazide]",6.67
14,"CCCOc1ccccc1-c1cc(F)ccc1OCC(=O)N(NC(=O)c1ccccc1)C(C)C [Example 17, benzoic acid N′-[2-(5-fluoro-2′-propoxy-biphenyl-2-yloxy)-acetyl]-N′-isopropyl-hydrazide]",5.66
15,"COC(=O)c1ccccc1-c1cc(F)ccc1OCC(=O)N(NC(=O)c1ccccc1)C(C)C [Example 18, benzoic acid N′-[2-(2′-methoxycarbonyl-5-fluoro-biphenyl-2-yloxy)-acetyl]-N′-isopropyl-hydrazide]",5.57

# Next, values leading:
row,pEC50,SMILES
1,5.89,"Cc1cccc(-c2cc(F)ccc2OCC(=O)N(NC(=O)c2ccccc2)C(C)C)c1C [Example 19, benzoic acid N′-[2-(2′,3′-dimethyl-5-fluoro-biphenyl-2-yloxy)-acetyl]-N′-isopropyl-hydrazide]"
2,6.48,"CC(C)N(NC(=O)c1ccccc1)C(=O)COc1ccc(F)cc1-c1ccccc1OC(F)(F)F [Example 20, benzoic acid N′-[2-(5-fluoro-2′-trifluoromethoxy-biphenyl-2-yloxy)-acetyl]-N′-isopropyl-hydrazide]"
3,5.87,"CCOc1ccccc1-c1cc(F)ccc1OCC(=O)N(NC(=O)c1ccccc1)C(C)C [Example 21, benzoic acid N′-[2-(2′-ethoxy-5-fluoro-biphenyl-2-yloxy)-acetyl]-N′-isopropyl-hydrazide]"
4,6.42,"CC(C)c1ccccc1-c1cc(F)ccc1OCC(=O)N(NC(=O)c1ccccc1)C(C)C [Example 22, benzoic acid N′-[2-(5-fluoro-2′-isopropyl-biphenyl-2-yloxy)-acetyl]-N′-isopropyl-hydrazide]"
5,5.53,"CC(C)N(NC(=O)c1ccccc1)C(=O)COc1ccc(F)cc1-c1ccc(F)cc1F [Example 24, benzoic acid N′-[2-(5,2′,4′-trifluoro-biphenyl-2-yloxy)-acetyl]-N′-isopropyl-hydrazide]"
6,5.86,"Cc1cc(F)ccc1-c1cc(F)ccc1OCC(=O)N(NC(=O)c1ccccc1)C(C)C [Example 25, benzoic acid N′-[2-(5,4′-difluoro-4′-methyl-biphenyl-2-yloxy)-acetyl]-N′-isopropyl-hydrazide]"
7,6.06,"CCc1ccccc1-c1cc(C)ccc1OCC(=O)N(NC(=O)c1ccccc1)C(C)C [Example 26, benzoic acid N′-[2-(2′-ethyl-5-methyl-biphenyl-2-yloxy)-acetyl]-N′-isopropyl-hydrazide]"
8,5.68,"CCc1ccccc1-c1cc(F)c(F)cc1OCC(=O)N(NC(=O)c1ccccc1)C(C)C [Example 27, benzoic acid N′-[2-(2′-ethyl-4,5-difluoro-biphenyl-2-yloxy)-acetyl]-N′-isopropyl-hydrazide]"
9,6.53,"CCc1ccccc1-c1cc(F)cc(F)c1OCC(=O)N(NC(=O)c1ccccc1)C(C)C [Example 28, benzoic acid N′-[2-(2′-ethyl-3,5-difluoro-biphenyl-2-yloxy)-acetyl]-N′-isopropyl-hydrazide]"
10,5.86,"CCc1ccccc1-c1cc(C#N)ccc1OCC(=O)N(NC(=O)c1ccccc1)C(C)C [Example 29, benzoic acid N′-[2-(5-cyano-2′-ethyl-biphenyl-2-yloxy)-acetyl]-N′-isopropyl-hydrazide]"
11,5.74,"CCc1ccccc1-c1cc(F)ccc1OCC(=O)N(NC(=O)c1ccc(OCCOC)cc1)C(C)C [Example 30, 4-(2-methoxy-ethoxy)-benzoic acid N′-[2-(5-fluoro-2′-ethyl-biphenyl-2-yloxy)-acetyl]-N′-isopropyl hydrazide]"
12,6.11,Cc1ccc(OCC(=O)N(NC(=O)c2ccccc2)C(C)C)c(-c2ccccc2OC(F)(F)F)c1 [Example 31]
13,6.03,"CC(C)N(NC(=O)c1ccccc1)C(=O)COc1cc(F)c(F)cc1-c1ccccc1OC(F)(F)F [Example 32, benzoic acid N′-[2-(4,5-difluoro-2′-trifluoromethoxy-biphenyl-2-yloxy)-acetyl]-N′-isopropyl hydrazide]"
14,6.45,"CC(C)N(NC(=O)c1ccccc1)C(=O)COc1c(F)cc(F)cc1-c1ccccc1OC(F)(F)F [Example 33, benzoic acid N′-[2-(3,5-difluoro-2′-trifluoromethoxy-biphenyl-2-yloxy)-acetyl]-N′-isopropyl hydrazide]"
15,5.91,"CC(C)N(NC(=O)C1CCOCC1)C(=O)COc1ccc(F)cc1-c1ccccc1OC(F)(F)F [Example 34, tetrahydro-pyran-4-carboxylic-acid-N′-[2-(5-fluoro-2′-trifluoromethoxy-biphenyl-2-yloxy)-acetyl]-N′-isopropyl-hydrazide]"
